Assay results published in article PMC6474902, “Examination of novel 4-aminoquinoline derivatives designed and synthesized by a hybrid pharmacophore approach to enhance their anticancer activities” (Scientific Reports, 2019).
Entries after “also recorded” stand apart in the source; their conditions may differ. Read-outs that look alike come from different tables or passages of the source.

Tests used:
[1] = tested on: MCF7; experiment: SRB antiproliferative/antigrowth assay; format: cell-based, human; settings: SRB, 48 h post-treatment, mean of triplicates of at least two experiments, read-out: GI50 MCF7
Experimental: (§1) The antigrowth effects of 4-piperazinylquinoline sulfonyl analogs on human breast tumor cells was initially evaluated using MDA-MB468 (a PTEN defective, EGFR positive breast adenocarcioma), MDA-MB231 (p53 and pRB mutated, triple-negative breast carcinoma), and MCF7 (p53+/−, invasive ductal breast carcinoma) cell lines. In addition, the cytotoxicity of all the compounds was also evaluated with the 184B5 and MCF10A non-cancer immortalized breast epithelial cell lines, to determine if these newly synthesized compounds have differential cytotoxic effects on cancer and non-cancer cells. The panel of three breast cancer cell lines with different genetic back ground and the well-studied two non-cancer immortalized breast cell lines would provide insights into the efficacy and toxicity of the test compounds in the different genetic background and at different stages of tumor development. The dose response of each cell line was established by determining the number of viable cells after 48 h of continuous drug treatment against seven different concentrations (100 µM to 0.0064 µM) of each compound. The reading of sulphorodamine B (SRB) staining is known to accurately reflect the level of total cellular macromolecules/cell growth/proliferation[6],[23]. […] The data for CQ and cisplatin were included as references. […] The differences in the GI50 values may be attributable to such factors as the nature of the sulfonyl group and the halogen substitution on the 7th position of the 4-piperazinylquinoline ring system, and the genetic and biochemical background of the cell lines.
(§2) Antiproliferative/antigrowth effects were determined by a SRB-based protocol[6],[23]. For a typical screening experiment, 5,000–10,000 cells were inoculated into 100 µL medium per well of a 96-well microtiter plate as described previously. Briefly, after the inoculation, the microtiter plate was incubated at 37 °C, 5% CO2, 95% air and 100% relative humidity for 24 h, prior to addition of experimental drugs. Some of the sample wells were fixed with 25 µL of 50% tricholoroacetic acid (TCA) as a control of the cell population for each cell line at the time of drug addition (Tz). An aliquot of the frozen stock was thawed and diluted to a desired final maximum test-concentration with complete medium. Two to ten-fold serial dilutions were made to provide a total of seven drug concentrations (and a control [C]). Following addition of drugs, the culture plate was incubated for additional 48 h. Cells were fixed in situ by slowly adding 25 µL of ice-cold 50% (w/v) TCA (final concentration, 10% TCA), and were then incubated for 60 min at 4 °C. The supernatant was discarded, and the plate was washed five times with tap water, followed by air-dry. 50 µL of SRB solution at 0.4% (w/v) in 1% acetic acid was added to each well, and the plate was incubated for >30 min at room temperature. Unbound SRB was removed by five washes with tap water, followed by air-drying. The cells “stained” with SRB were solubilized with 10 mM trizma base, and the absorbance was read on an automated plate reader at a wavelength of 515–564 nm. The relative growth rate (%) was calculated for each of the compound concentrations according to the following formula: (Ti−Tz)/(C−Tz)×100
(§3) In the formula, time zero (Tz), control growth (C), and OD for different concentration of tested compounds (Ti). The GI50 for each compound was obtained from a non-linear Sigmoidal dose-response (variable slope) curve which is fitted by GraphPad Prism v.4.03 software. Values were calculated for each of these parameters if the level of activity was reached. However, if the effect was not reached or was exceeded, the value for that parameter was expressed as greater or less than the maximum or minimum concentration tested.

[2] = tested on: MDA-MB231; experiment: SRB antiproliferative/antigrowth assay; format: cell-based, human; settings: for GI50: SRB, 48 h post-treatment, mean of triplicates of at least two experiments, read-out: GI50 MB231
Experimental: as §1, §2, §3

[3] = tested on: MDA-MB468; experiment: SRB antiproliferative/antigrowth assay; format: cell-based, human; settings: SRB, 48 h post-treatment, mean of triplicates of at least two experiments, read-out: GI50 MB468
Experimental: as §1, §2, §3

[4] = tested on: MDA-MB231, MDA-MB468, MCF7 breast cancer cells; 184B5 and MCF10A non-cancer breast cells; experiment: SRB assay, panel of breast cancer and non-cancer breast cell lines; format: cell-based, human; settings: judged from GI50 values of Table 1
Experimental: as §1, §2, §3

[5] = tested on: 184B5; experiment: SRB antiproliferative/antigrowth assay, non-cancer cells; format: cell-based, human; settings: SRB, 48 h post-treatment, non-cancer breast epithelial cells, read-out: GI50 184B5
Experimental: as §1, §2, §3

[6] = tested on: MCF10A; experiment: as above; format: cell-based, human; settings: SRB, 48 h post-treatment, non-cancer breast epithelial cells, read-out: GI50 MCF10A
Experimental: as §1, §2, §3

SMILES	GI50 ([1]; Homo sapiens, MCF7, 48 h) [µM]	GI50 ([2]; Homo sapiens, MDA-MB-231, 48 h) [µM]	GI50 ([3]; Homo sapiens, MDA-MB-468, 48 h) [µM]	preferential antigrowth effect on cancer versus non-cancer cells (in words) [4]	GI50 ([5]; Homo sapiens, 184B5, 48 h) [µM]	GI50 ([6]; Homo sapiens, MCF-10A, 48 h) [µM]	melting point [°C]	GI50 [1] [µM]	GI50 [2] [µM]	GI50 [3] [µM]	GI50 [5] [µM]	GI50 [6] [µM]	increase in antigrowth activity on MDA-MB231 in comparison to methyl substituted compound 16 [2] [fold]	increase in potency on MDA-MB231 in comparison to methyl substituted compounds (25 and 34) [2]
Cc1ccc(S(=O)(=O)NCCCNc2ccnc3cc(Cl)ccc23)cc1 [Compound 26, N-[3-(7-Chloro-quinolin-4-ylamino)-propyl]-4-methyl-benzenesulfonamide]	5.2 ± 0.5	6.2 ± 0.5	5.8 ± 0.4	effective and preferential antigrowth effects on cancer cells; also recorded: stronger antigrowth/antiproliferation activity against cancer cells than non-cancer cells	9.6 ± 0.5	12.2 ± 0.6	–	–	–	–	–	–	–	–
CN(C)c1cccc2c(S(=O)(=O)N3CCN(c4ccnc5cc(C(F)(F)F)ccc45)CC3)cccc12 [Compound 23, Dimethyl-{5-[4-(7-trifluoromethyl-quinolin-4-yl)-piperazine-1-sulfonyl]-naphthalen-1-yl}-amine]	12.9 ± 0.2	22.1 ± 0.6	19.1 ± 0.6	–	12 ± 0.2	15.4 ± 0.5	98 to 100	–	–	–	–	–	–	–
CS(=O)(=O)NCCCNc1ccnc2cc(C(F)(F)F)ccc12 [Compound 34, N-[3-(7-Trifluoromethyl-quinolin-4-ylamino)-propyl]-methanesulfonamide]	25.3 ± 1.3	55.9 ± 1.6	30.4 ± 1	–	59.5 ± 1.6	85 ± 1.2	171 to 173	–	–	–	–	–	–	–
O=S(=O)(NCCCNc1ccnc2cc(Cl)ccc12)c1ccc(Cl)cc1Cl [Compound 29, 2,4-Dichloro-N-[3-(7-chloro-quinolin-4-ylamino)-propyl]-benzenesulfonamide]	4 ± 0.2	6.8 ± 0.6	3.6 ± 0.1	–	3.6 ± 0.2	6.8 ± 0.4	145 to 147	–	–	–	–	–	–	–
O=S(=O)(c1ccc(Cl)cc1Cl)N1CCN(c2ccnc3cc(Cl)ccc23)CC1 [Compound 11, 7-Chloro-4-(4-(2,4-dichlorophenylsulfonyl)piperazin-1-yl)quinoline]	13.5 ± 0.2	40.6 ± 0.8	21.6 ± 0.6	–	12.4 ± 0.1	8.9 ± 0.2	145 to 147	–	–	–	–	–	–	–
Cc1ccc(S(=O)(=O)N2CCN(c3ccnc4cc(C(F)(F)F)ccc34)CC2)cc1 [Compound 17, 4-[4-(Toluene-4-sulfonyl)-piperazin-1-yl]-7-trifluoromethyl-quinoline]	20.8 ± 0.2	42.7 ± 0.8	36.5 ± 0.8	–	12.9 ± 0.1	10.5 ± 0.1	126 to 128	–	–	–	–	–	–	–
O=S(=O)(c1ccc(-c2ccccc2)cc1)N1CCN(c2ccnc3cc(C(F)(F)F)ccc23)CC1 [Compound 18, 4-[4-(Biphenyl-4-sulfonyl)-piperazin-1-yl]-7-trifluoromethyl-quinoline]	14.8 ± 0.2	27.2 ± 0.6	20.5 ± 0.5	–	19.1 ± 0.2	15.5 ± 0.4	148 to 150	–	–	–	–	–	–	–
O=[N+]([O-])c1cccc(S(=O)(=O)NCCCNc2ccnc3cc(C(F)(F)F)ccc23)c1 [Compound 39, 3-Nitro-N-[3-(7-trifluoromethyl-quinolin-4-ylamino)-propyl]-benzenesulfonamide]	8.3 ± 0.5	15.7 ± 1	9.1 ± 0.6	–	8 ± 0.8	10.6 ± 0.9	98 to 100	–	–	–	–	–	–	–
N.N.[Cl][Pt][Cl] [Cisplatin, reference compound]	–	–	–	similar	–	–	–	25.8 ± 0.4	23.7 ± 0.2	31 ± 0.5	25.5 ± 0.4	51.5 ± 0.9	–	–
O=S(=O)(NCCCNc1ccnc2cc(Cl)ccc12)c1ccc(-c2ccccc2)cc1 [Compound 27, Biphenyl-4-sulfonic acid [3-(7-chloro-quinolin-4-ylamino)-propyl]-amide]	2.5 ± 0.2	4.6 ± 0.4	4.5 ± 0.4	–	2.4 ± 0.1	2.6 ± 0.1	116 to 118	–	–	–	–	–	–	–
O=S(=O)(c1ccc(Cl)cc1Cl)N1CCN(c2ccnc3cc(C(F)(F)F)ccc23)CC1 [Compound 20, 4-[4-(2,4-Dichloro-benzenesulfonyl)-piperazin-1-yl]-7-trifluoromethyl-quinoline]	16.7 ± 0.2	20.3 ± 0.5	18.6 ± 0.5	–	20.4 ± 0.2	15.6 ± 0.2	137 to 139	–	–	–	–	–	2	–
O=S(=O)(NCCCNc1ccnc2cc(C(F)(F)F)ccc12)c1ccc(Cl)cc1 [Compound 37, 4-Chloro-N-[3-(7-trifluoromethyl-quinolin-4-ylamino)-propyl]-benzenesulfonamide]	5.4 ± 0.3	12.8 ± 0.9	10.3 ± 0.6	–	7.6 ± 0.4	17.4 ± 0.1	70 to 72	–	–	–	–	–	–	3.5–4.4 fold
O=S(=O)(c1ccc(Cl)cc1)N1CCN(c2ccnc3cc(C(F)(F)F)ccc23)CC1 [Compound 19, 4-[4-(4-Chloro-benzenesulfonyl)-piperazin-1-yl]-7-trifluoromethyl-quinoline]	27.4 ± 0.3	41.4 ± 0.8	34.9 ± 0.8	–	21.8 ± 0.3	13.6 ± 0.2	144 to 146	–	–	–	–	–	–	–
O=[N+]([O-])c1cccc(S(=O)(=O)N2CCN(c3ccnc4cc(Cl)ccc34)CC2)c1 [Compound 12, 7-Chloro-4-(4-(3-nitrophenylsulfonyl)piperazin-1-yl)quinoline]	14.8 ± 0.2	34.7 ± 0.7	25.1 ± 0.7	–	13.3 ± 0.2	15.5 ± 0.2	138 to 140	–	–	–	–	–	–	–
